Legend:
[1] = tested on: BAD KO SV40 MEF (BAD gene knockout immortalized mouse embryonic fibroblasts); assay: Alamar blue cytotoxicity assay, 72 h; format: cell-based; conditions: read-out: IC50 and 95% CI
[2] = tested on: WT SV40 MEF (wild-type immortalized mouse embryonic fibroblast); assay: Alamar blue cytotoxicity assay, 72 h; format: cell-based; conditions: read-out: IC50 and 95% CI
[3] = tested on: human topoisomerase IB; parameters: method as in PMID 26795676; conditions: ref [18], [19]; cited from earlier work
[4] = tested on: B16-F10 (mouse melanoma); assay: Alamar blue cytotoxicity assay, 72 h; format: cell-based; conditions: for IC50: read-out: IC50 and 95% CI, B16-F10, 72 h
Source text: (§1) The cell lines HepG2 (human hepatocellular carcinoma), HL-60 (human promyelocytic leukemia), K-562 (human chronic myelogenous leukemia), B16-F10 (mouse melanoma), MCF-7 (human breast carcinoma), HCT116 (human colon carcinoma), HSC-3 (human oral squamous cell carcinoma), SCC-4 (human oral squamous cell carcinoma), MRC-5 (human lung fibroblast), WT SV40 MEF (wild-type immortalized mouse embryonic fibroblast), and BAD KO SV40 MEF (BAD gene knockout immortalized mouse embryonic fibroblasts) were obtained from the American Type Culture Collection (ATCC, Manassas, VA, USA). Cells were cultured in RPMI 1640 medium (Gibco-BRL, Gaithersburg, MD, USA) with 10% fetal bovine serum (Life, Carlsbad, CA, USA), 2 mM L-glutamine (Vetec Química Fina, Duque de Caxias, RJ, Brazil) and 50 μg/mL gentamycin (Life). For all experiments, adherent cells were collected by treatment with 0.25% trypsin-EDTA solution (Gibco-BRL). All cell lines were cultured in flasks at 37°C in 5% CO2 and were subcultured every 3–4 days to maintain exponential growth. All cell lines were tested for mycoplasma using a mycoplasma staining kit (Sigma-Aldrich Co.) to validate that the cells that were used were free from contamination.
(§2) Cytotoxicity was measured colorimetrically using an Alamar blue method that was performed as previously described ([20], [21]). Cells were seeded in 96-well plates for all experiments (7 × 10^4 cells/mL for adherent cells or 3 × 10^5 cells/mL for suspension cells in 100 μL of medium) and incubated overnight at 37°C with 5% CO2 to allow for adherence. The complexes were dissolved in 0.5% dimethyl sulfoxide (DMSO, Vetec Química Fina) at eight different concentrations from 0.19 to 25 μg/mL and were added to each well and incubated for 72 h. The negative control was treated with the vehicle (0.5% DMSO) that was used to solubilize and dilute the complexes. […] Four (for cell lines) or 24 h (for PBMCs) before the end of incubation, 20 μL of a stock solution (0.312 mg/mL) of resazurin (Sigma-Aldrich Co.) was added to each well. Absorbance was measured at 570 and 600 nm using a SpectraMax 190 Microplate Reader (Molecular Devices, Sunnyvale, CA, USA).

[5] = tested on: HL-60 (human promyelocytic leukemia); assay: Alamar blue cytotoxicity assay, 72 h; format: cell-based
Source text: as §1, §2

[6] = tested on: SCC-4 (human oral squamous cell carcinoma); assay: Alamar blue cytotoxicity assay, 72 h; format: cell-based
Source text: as §1, §2

[7] = tested on: advanced HCC; parameters: method as in PMID 18650514, PMID 28604110, PMID 29533189; conditions: ref [2]–[4]; cited from earlier work
[8] = tested on: HSC-3 (human oral squamous cell carcinoma); assay: Alamar blue cytotoxicity assay, 72 h; format: cell-based; conditions: PBMCs vs HSC-3
Source text: as §1, §2

[9] = tested on: MCF-7 (human breast carcinoma); assay: Alamar blue cytotoxicity assay, 72 h; format: cell-based
Source text: as §1, §2

[10] = tested on: HCT116 (human colon carcinoma); assay: Alamar blue cytotoxicity assay, 72 h; format: cell-based; conditions: PBMCs vs HCT116
Source text: as §1, §2

## N.N.[Cl][Pt][Cl] [cisplatin, reference compound]
[1]
  IC50: 47.3 µM
[2]
  IC50: 36.9 µM

## F[P-](F)(F)(F)(F)F.O=C(O)c1ccc([S-])nc1.[Ru+2].c1ccc(-c2ccccn2)nc1.c1ccc(P(CCCCP(c2ccccc2)c2ccccc2)c2ccccc2)cc1 [Complex 4, [Ru(mpca)(bipy)(dppb)]PF6]
[3]
  supercoiled DNA relaxation mediated by human topoisomerase IB: inhibit the supercoiled DNA relaxation
[4]; PBMCs vs B16-F10
  Selectivity index (SI = IC50 [noncancerous cells]/IC50 [cancer cells]): 1.3
[4]
  IC50: 17.7 µM
[5]; PBMCs vs HL-60
  Selectivity index (SI = IC50 [noncancerous cells]/IC50 [cancer cells]): 2.6
[5]; read-out: IC50 and 95% CI, HL-60, 72 h
  IC50: 8.7 µM

## O=C1[O][Pt]2([NH][C@@H]3CCCC[C@H]3[NH]2)[O]C1=O [oxaliplatin, reference compound]
[6]; read-out: IC50 and 95% CI, SCC-4, 72 h
  IC50: 7.7 µM

## CNC(=O)c1cc(Oc2ccc(NC(=O)Nc3ccc(Cl)c(C(F)(F)F)c3)cc2)ccn1 [sorafenib]
[7]
  prolongation of survival: 3 months

## F[P-](F)(F)(F)(F)F.Nc1cc(N)nc([S-])n1.[Ru+2].c1ccc(-c2ccccn2)nc1.c1ccc(P(CCCCP(c2ccccc2)c2ccccc2)c2ccccc2)cc1 [Complex 3, [Ru(dmp)(bipy)(dppb)]PF6]
[3]
  supercoiled DNA relaxation mediated by human topoisomerase IB: inhibit the supercoiled DNA relaxation
[8]
  Selectivity index (SI = IC50 [noncancerous cells]/IC50 [cancer cells]): 2.5
[4]
  IC50: 3.9 µM
[9]; PBMCs vs MCF-7
  Selectivity index (SI = IC50 [noncancerous cells]/IC50 [cancer cells]): 1.5
[9]; read-out: IC50 and 95% CI, MCF-7, 72 h
  IC50: 8.7 µM
[5]; MRC-5 vs HL-60
  Selectivity index (SI = IC50 [noncancerous cells]/IC50 [cancer cells]): 1.1
[5]; PBMCs vs HL-60
  Selectivity index (SI = IC50 [noncancerous cells]/IC50 [cancer cells]): 2.6
[6]; MRC-5 vs SCC-4
  Selectivity index (SI = IC50 [noncancerous cells]/IC50 [cancer cells]): 1.1
[10]
  Selectivity index (SI = IC50 [noncancerous cells]/IC50 [cancer cells]): 2.2

— publication PMC6629894, “Ruthenium Complexes Containing Heterocyclic Thioamidates Trigger Caspase-Mediated Apoptosis Through MAPK Signaling in Human Hepatocellular Carcinoma Cells” (Frontiers in Oncology, 2019)
